These results are taken from patent publication US4628090A, “Fluorine-containing antifolates incapable of polyglutanayte formation related compounds” (Rensselaer Polytechnic Institute, priority 1985, dated 1986).

SMILES strings stand for the structures. “Also recorded” adds a separate entry of the source. Like-named read-outs stand apart in the source and are kept apart here.

Data set [1] has as its system FPGS (folylpolyglutamate synthetase). Description: FPGS inhibition / chain termination by 4-fluoroglutamic acid. It counts as biochemical. The text has this:
The present invention for the first time presents a fluorinated compound, e.g. D,L-threo-4-fluoroglutamic acid which inhibits FPGS. It is proposed that by replacing the glutamate moiety of MTX with 4-fluoroglutamate, as in the present invention, the new MTX analog becomes capable of inhibiting DHFR and incapable of acting as a substrate for FPGS.

The test system is the same in data set [2]. The settings on record: alternate substrate; McGuire and Coward, J. Biol. Chem. 260, 6747 (1985); cited from earlier work.
For data set [3] the test system is unchanged. Particulars: Rosowsky et al; cited from earlier work.
For data set [4], the system named is DHFR. The settings on record: Rosowsky et al; cited from earlier work.
For data set [5], the system named is folylpolyglutamate synthetase. Description: Polyglutamylation by FPGS: incubation with FPGS, ATP and glutamic acid (Tables 2 and 3). Particulars: Table 2 footnotes, ATP, glutamic acid. It is filed as biochemical.
For data set [6], the system named is leukemia. Particulars: Farber et al, 1948; cited from earlier work.
The test system of data set [7] is hepatic cells. It is filed as cell-based.
Data set [8] deals with biosynthesis of thymidyate. Description: Thymidylate biosynthesis (DNA synthesis) in pulse administration experiments. It is filed as cell-based.
Data set [9] has as its system dihydrofolate reductase (DHFR). Nature of the data set: DHFR inhibition. It is filed as biochemical. Particulars: in vitro, relative to MTX. From the text:
Hopefully, the potential for this new compound as a treatment for leukemia will be exploited further.

Data set [10] concerns cultured hepatic cells. Description: Toxicity in long term pulse administration experiments, cultured hepatic cells. It counts as cell-based. The text has this: The major difference is that the cells given MTX contain large amounts (60%-90%) of MTX polyglutamate derivatives which efflux only very slowly, and thus are trapped in the cell. In contrast, cells given MFTX contain less than 5% of the analgous FMTX polyglutamates.

The subject of data set [11] is rat liver FPGS. Description: FPGS substrate activity, in vitro, rat liver FPGS. It counts as biochemical.

As to `NC(CC(F)C(=O)O)C(=O)O` [D,L-threo-4-fluoroglutamic acid], the “inhibition of FPGS” value in [1] is on record as “inhibits FPGS”. Further, in [2], the “chain termination of the FPGS reaction” value was “chain termination of the FPGS reaction”.
Turning to `CN(Cc1cnc2nc(N)nc(N)c2n1)c1ccc(C(=O)NC(CCS(=O)(=O)O)C(=O)O)cc1` (racemic), the “inhibition of FPGS” value in data set [3] was “appears to weakly inhibit FPGS”. The “affinity for DHFR” value in data set [4] is “tightly bind DHFR”.
`CN(Cc1cnc2nc(N)nc(N)c2n1)c1ccc(C(=O)N[C@@H](CCC(=O)O)C(=O)O)cc1` [Methotrexate]: the polyglutamylation result in data set [5] is “undergoes”. The remission in leukemia entry in data set [6] was “temporary remission in leukemia”. In addition, in [7], the “polyglutamate derivatives contained in cells” value is recorded as 60-90%.
As for `Nc1nc2ncc(CNc3ccc(C(=O)N[C@@H](CCC(=O)O)C(=O)O)cc3)nc2c(=O)[nH]1` [Folic Acid], in data set [5], the polyglutamylation entry is “undergoes polyglutamylation”.
Turning to `CN(Cc1cnc2nc(N)nc(N)c2n1)c1ccc(C(=O)NC(CC(F)C(=O)O)C(=O)O)cc1` (stereo not drawn) [FMTX, 4-amino-10-methyl-pteroyl-4-fluoroglutamic acid], the “biosynthesis of thymidyate, and therefore DNA synthesis” value in data set [8] is “only very weakly affected”. Besides, in data set [5], the polyglutamylation result is reported as “resists”. The “inhibitory activity against DHFR” value in [9] is recorded as “retain the potent inhibitory activity of MTX against DHFR; also recorded: comparable to MTX”. Also, the toxicity levels result in data set [10] (long term pulse administration, cultured hepatic cells, relative to MTX) was “several thousand times lower than MTX”. In addition, the toxicity to cells result in data set [10] (preliminary biochemistry, relative to MTX) was “without being nearly as toxic to cells”. Further, in data set [10] (pulse conditions), the cytotoxicity result is given as “marked decrease in cytotoxicity”. In addition, the “substrate for FPGS” value in data set [11] is reported as “not a substrate”. Besides, in [7], the “efflux (transport out) from hepatic cells, rate” value is listed as “essentially identical to unmetabolized MTX”; the “polyglutamate derivatives contained in cells” value was “less than 5%”; the “uptake by hepatic cells (rate and extent)” value was “nearly identical in terms of rate and extent as unmetabolized MTX”.
